Results as given in US20240238242A1, “EGCG buccal tablet and use thereof” (priority 2023, published 2024).
“And” between values parts separate entries of the source, which are not always exact repeats. Identical values can stand only once. Like-named read-outs stand apart in the source and are kept apart here.

System: Influenza A virus neuraminidase inhibitor-resistant strain (ZX-1109)
Type: cell-based
Conditions: for average inactivation efficiency against virus: ZX1109 virus, three experiments; for residual virus titer of EGCG+virus group (Karber method) / inactivation efficiency against the virus: ZX-1109 virus; for inactivation efficiency against the virus: single experiment

With `O=C(O[C@@H]1Cc2c(O)cc(O)cc2O[C@@H]1c1cc(O)c(O)c(O)c1)c1cc(O)c(O)c(O)c1` [EGCG, Epigallocatechin gallate] the “CPE test (virus replication in the cell wells)” value (1 mM EGCG + ZX-1109 virus, 1 minute, third experiment, dilution factor 10^6, wells 1-10) was “− and +”, the “CPE test (virus replication in the cell wells)” value (1 mM EGCG + ZX-1109 virus, 1 minute, third experiment, dilution factor 10^7, wells 1-10) was “−” and the “CPE test (virus replication in the cell wells)” value (1 mM EGCG + ZX-1109 virus, 1 minute, third experiment, dilution factor 10^8, wells 1-10) was “−”. For the same molecule, the “CPE test (virus replication in the cell wells)” value (1 mM EGCG + ZX-1109 virus, 5 minute, first experiment, dilution factor 10^2, wells 1-10) was “+”, the “CPE test (virus replication in the cell wells)” value (1 mM EGCG + ZX-1109 virus, 5 minute, first experiment, dilution factor 10^3, wells 1-10) was “+” and the “CPE test (virus replication in the cell wells)” value (1 mM EGCG + ZX-1109 virus, 5 minute, first experiment, dilution factor 10^4, wells 1-10) was “+”. The “CPE test (virus replication in the cell wells)” value (1 mM EGCG + ZX-1109 virus, 5 minute, first experiment, dilution factor 10^5, wells 1-10) was “+ and −”, the “CPE test (virus replication in the cell wells)” value (1 mM EGCG + ZX-1109 virus, 5 minute, first experiment, dilution factor 10^6, wells 1-10) was “− and +” and the “CPE test (virus replication in the cell wells)” value (1 mM EGCG + ZX-1109 virus, 5 minute, first experiment, dilution factor 10^7, wells 1-10) was “− and +”. For the same molecule, the “CPE test (virus replication in the cell wells)” value (1 mM EGCG + ZX-1109 virus, 5 minute, first experiment, dilution factor 10^8, wells 1-10) was “+ and −”, the “CPE test (virus replication in the cell wells)” value (1 mM EGCG + ZX-1109 virus, 5 minute, second experiment, dilution factor 10^2, wells 1-10) was “+” and the “CPE test (virus replication in the cell wells)” value (1 mM EGCG + ZX-1109 virus, 5 minute, second experiment, dilution factor 10^3, wells 1-10) was “+”. The “CPE test (virus replication in the cell wells)” value (1 mM EGCG + ZX-1109 virus, 5 minute, second experiment, dilution factor 10^4, wells 1-10) was “+”, the “CPE test (virus replication in the cell wells)” value (1 mM EGCG + ZX-1109 virus, 5 minute, second experiment, dilution factor 10^5, wells 1-10) was “+ and −” and the “CPE test (virus replication in the cell wells)” value (1 mM EGCG + ZX-1109 virus, 5 minute, second experiment, dilution factor 10^6, wells 1-10) was “− and +”. The “CPE test (virus replication in the cell wells)” value (1 mM EGCG + ZX-1109 virus, 5 minute, second experiment, dilution factor 10^7, wells 1-10) was “− and +”, the “CPE test (virus replication in the cell wells)” value (1 mM EGCG + ZX-1109 virus, 5 minute, second experiment, dilution factor 10^8, wells 1-10) was “− and +” and the “CPE test per cell well” value (1 mM EGCG + ZX-1109 virus, 5 minute, third experiment, dilution factor 10^2, wells 1-10) was “+”. The “CPE test per cell well” value (1 mM EGCG + ZX-1109 virus, 5 minute, third experiment, dilution factor 10^3, wells 1-10) was “+”, the “CPE test per cell well” value (1 mM EGCG + ZX-1109 virus, 5 minute, third experiment, dilution factor 10^4, wells 1-10) was “+” and the “CPE test per cell well” value (1 mM EGCG + ZX-1109 virus, 5 minute, third experiment, dilution factor 10^5, wells 1-10) was “− and +”. The “CPE test per cell well” value (1 mM EGCG + ZX-1109 virus, 5 minute, third experiment, dilution factor 10^6, wells 1-10) was “+ and −”, the “CPE test per cell well” value (1 mM EGCG + ZX-1109 virus, 5 minute, third experiment, dilution factor 10^7, wells 1-10) was “− and +” and the “CPE test per cell well” value (1 mM EGCG + ZX-1109 virus, 5 minute, third experiment, dilution factor 10^8, wells 1-10) was “+ and −”. The “average inactivation efficiency against virus” value (from here on “average inactivation efficiency”) (1 mM EGCG, 1 minute) was 89.97%, the “average inactivation efficiency” value (1 mM EGCG, 5 minutes) was 97.59% and the “residual virus titer of EGCG+virus group (Karber method)” value (1 mM EGCG, 1 minute) was 10^5 TCID50/50 μL. For the same molecule, the “inactivation efficiency against the virus” value (1 mM EGCG, 1 minute) was 93.69% and 92.06% and 84.15%, the “residual virus titer of EGCG+virus group (Karber method)” value (1 mM EGCG, 5 minutes) was 10^6 TCID50/50 μL and the “inactivation efficiency against the virus” value (1 mM EGCG, 5 minutes) was 96.02% and 98.74% and 98.00%. For the same molecule, the “CPE test per cell well” value (5 mM EGCG + ZX1109 virus, 1 minute, second experiment, dilution factor 10^3, wells 1-10) was “+”, the “CPE test per cell well” value (5 mM EGCG + ZX1109 virus, 1 minute, second experiment, dilution factor 10^4, wells 1-10) was “+ and −” and the “CPE test per cell well” value (5 mM EGCG + ZX1109 virus, 1 minute, second experiment, dilution factor 10^5, wells 1-10) was “− and +”. For the same molecule, the “CPE test per cell well” value (5 mM EGCG + ZX1109 virus, 1 minute, second experiment, dilution factor 10^6, wells 1-10) was “−”, the “CPE test per cell well” value (5 mM EGCG + ZX1109 virus, 1 minute, second experiment, dilution factor 10^7, wells 1-10) was “−” and the “CPE test per cell well” value (5 mM EGCG + ZX1109 virus, 1 minute, second experiment, dilution factor 10^8, wells 1-10) was “−”. The “CPE test per cell well” value (5 mM EGCG + ZX-1109 virus, 1 minute, first experiment, dilution factor 10^2, wells 1-10) was “+”, the “CPE test per cell well” value (5 mM EGCG + ZX-1109 virus, 1 minute, first experiment, dilution factor 10^3, wells 1-10) was “+” and the “CPE test per cell well” value (5 mM EGCG + ZX-1109 virus, 1 minute, first experiment, dilution factor 10^4, wells 1-10) was “+ and −”. For the same molecule, the “CPE test per cell well” value (5 mM EGCG + ZX-1109 virus, 1 minute, first experiment, dilution factor 10^5, wells 1-10) was “+ and −”, the “CPE test per cell well” value (5 mM EGCG + ZX-1109 virus, 1 minute, first experiment, dilution factor 10^6, wells 1-10) was “−” and the “CPE test per cell well” value (5 mM EGCG + ZX-1109 virus, 1 minute, first experiment, dilution factor 10^7, wells 1-10) was “−”. For the same molecule, the “CPE test per cell well” value (5 mM EGCG + ZX-1109 virus, 1 minute, first experiment, dilution factor 10^8, wells 1-10) was “−”, the “CPE test (virus replication in the cell wells)” value (5 mM EGCG + ZX-1109 virus, 1 minute, third experiment, dilution factor 10^2, wells 1-10) was “+” and the “CPE test (virus replication in the cell wells)” value (5 mM EGCG + ZX-1109 virus, 1 minute, third experiment, dilution factor 10^3, wells 1-10) was “+”. The “CPE test (virus replication in the cell wells)” value (5 mM EGCG + ZX-1109 virus, 1 minute, third experiment, dilution factor 10^4, wells 1-10) was “+ and −”, the “CPE test (virus replication in the cell wells)” value (5 mM EGCG + ZX-1109 virus, 1 minute, third experiment, dilution factor 10^5, wells 1-10) was “−” and the “CPE test (virus replication in the cell wells)” value (5 mM EGCG + ZX-1109 virus, 1 minute, third experiment, dilution factor 10^6, wells 1-10) was “−”. For the same molecule, the “CPE test (virus replication in the cell wells)” value (5 mM EGCG + ZX-1109 virus, 1 minute, third experiment, dilution factor 10^7, wells 1-10) was “−”, the “CPE test (virus replication in the cell wells)” value (5 mM EGCG + ZX-1109 virus, 1 minute, third experiment, dilution factor 10^8, wells 1-10) was “−” and the “CPE test (virus replication in the cell wells)” value (5 mM EGCG + ZX-1109 virus, 5 minute, first experiment, dilution factor 10^3, wells 1-10) was “+”. For the same molecule, the “CPE test (virus replication in the cell wells)” value (5 mM EGCG + ZX-1109 virus, 5 minute, first experiment, dilution factor 10^4, wells 1-10) was “+ and −”, the “CPE test (virus replication in the cell wells)” value (5 mM EGCG + ZX-1109 virus, 5 minute, first experiment, dilution factor 10^5, wells 1-10) was “− and +” and the “CPE test (virus replication in the cell wells)” value (5 mM EGCG + ZX-1109 virus, 5 minute, first experiment, dilution factor 10^6, wells 1-10) was “− and +”. For the same molecule, the “CPE test (virus replication in the cell wells)” value (5 mM EGCG + ZX-1109 virus, 5 minute, first experiment, dilution factor 10^7, wells 1-10) was “− and +”, the “CPE test (virus replication in the cell wells)” value (5 mM EGCG + ZX-1109 virus, 5 minute, first experiment, dilution factor 10^8, wells 1-10) was “−” and the “CPE test (virus replication in the cell wells)” value (5 mM EGCG + ZX-1109 virus, 5 minute, second experiment, dilution factor 10^3, wells 1-10) was “+”. For the same molecule, the “CPE test (virus replication in the cell wells)” value (5 mM EGCG + ZX-1109 virus, 5 minute, second experiment, dilution factor 10^4, wells 1-10) was “− and +”, the “CPE test (virus replication in the cell wells)” value (5 mM EGCG + ZX-1109 virus, 5 minute, second experiment, dilution factor 10^5, wells 1-10) was “− and +” and the “CPE test (virus replication in the cell wells)” value (5 mM EGCG + ZX-1109 virus, 5 minute, second experiment, dilution factor 10^6, wells 1-10) was “−”. The “CPE test (virus replication in the cell wells)” value (5 mM EGCG + ZX-1109 virus, 5 minute, second experiment, dilution factor 10^7, wells 1-10) was “−”, the “CPE test (virus replication in the cell wells)” value (5 mM EGCG + ZX-1109 virus, 5 minute, second experiment, dilution factor 10^8, wells 1-10) was “−” and the “CPE test per cell well” value (5 mM EGCG + ZX-1109 virus, 5 minute, third experiment, dilution factor 10^3, wells 1-10) was “+”. For the same molecule, the “CPE test per cell well” value (5 mM EGCG + ZX-1109 virus, 5 minute, third experiment, dilution factor 10^4, wells 1-10) was “− and +”, the “CPE test per cell well” value (5 mM EGCG + ZX-1109 virus, 5 minute, third experiment, dilution factor 10^5, wells 1-10) was “−” and the “CPE test per cell well” value (5 mM EGCG + ZX-1109 virus, 5 minute, third experiment, dilution factor 10^6, wells 1-10) was “−”. For the same molecule, the “CPE test per cell well” value (5 mM EGCG + ZX-1109 virus, 5 minute, third experiment, dilution factor 10^7, wells 1-10) was “−”, the “CPE test per cell well” value (5 mM EGCG + ZX-1109 virus, 5 minute, third experiment, dilution factor 10^8, wells 1-10) was “−” and the “average inactivation efficiency” value (5 mM EGCG, 1 minute) was 93.73%. For the same molecule, the “average inactivation efficiency” value (5 mM EGCG, 5 minutes) was 99.86%, the “inactivation efficiency against the virus” value (5 mM EGCG, 1 minute) was 90.00% and 93.69% and 97.49% and the “inactivation efficiency against the virus” value (5 mM EGCG, 5 minutes) was 99.60% and 99.99%.
